Laboratory results as given in patent US9220718B2, “Sonosensitive liposome, pharmaceutical composition including the same, and method of delivering active agent to subject using the sonosensitive liposome” (Samsung Electronics Co., Ltd., priority 2013, dated 2015).

System: Hela cells
Assay: Cell viability by WST assay (WST-8, Cell Counting Kit-8)
Type: cell-based
Details: 10 ul of radical DX, 20 ug/ml of distilled water
Protocol: The same liposomes were exposed to ultrasound for 5 minutes at different amplitudes (i.e., 50%, 75%, and 100% of the maximum amplitude) at a frequency of 20 kHz. 10 ul of the sonicated liposomes (DX concentration of 20 ug/ml) was immediately added to Hela cells as described above, and then, incubated for 30 minutes. As a control group, a group treated with 10 ul of PBS, a group treated with 10 ul of radical DX (20 ug/ml of distilled water), and a group wherein HeLa cells are incubated at a temperature of 42° C. were all included. The cell viability thereof was obtained by counting viable cells using a WST assay [2-(2-methoxy-4-nitrophenyl)-3-(4-nitrophenyl)-5-(2,4-disulfophenyl)-2H-tetrazolium, monosodium salts] (WST-8, Cell Counting Kit-8, Dojindo, Japan).

Q: For `COc1cccc2c1C(=O)c1c(O)c3c(c(O)c1C2=O)C[C@@](O)(C(=O)CO)C[C@@H]3O[C@H]1C[C@H](N)[C@H](O)[C@H](C)O1` [radical Dx, Doxorubicin], which “cell viability, compared with the sonicated liposomes (about 15%)” value is on record?
A: similar
